From US12173018B2, “Penicillin-binding protein inhibitors” (priority 2018, dated 2024) come the findings set out here.

Values after ≈ are worked out from the molar mass of the structure shown. Like-named read-outs stand apart in the source and are kept apart here.

In assay [1] the test system is engineered strain of Escherichia coli harboring CTX-M15. Nature of the assay: microbe, parasite or virus in culture. In kind it is cell-based. The conditions noted are these: Escherichia coli, read-out: Microbiological Activity (MIC in mg/L), E. coli DH5α/pLBII-CTX-M15, engineered strain producing CTX-M15.
For assay [2], the target named is E. coli PBP3 (Escherichia coli (strain K12), UniProt P0AD68). Nature of the assay: E. coli PBP3 Bocillin-FL fluorescence polarization competition binding assay. In a few lines: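 Purified PBP (1.5 μM final) was combined with test compound (0–1000 μM) and Bocillin-FL (fluorescent penicillin V, 0.1 μM final) in 50 mM Hepes pH 8.0, 300 mM NaCl, 5% glycerol.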
E. coli PBP3, sequence (P0AD68 whole entry): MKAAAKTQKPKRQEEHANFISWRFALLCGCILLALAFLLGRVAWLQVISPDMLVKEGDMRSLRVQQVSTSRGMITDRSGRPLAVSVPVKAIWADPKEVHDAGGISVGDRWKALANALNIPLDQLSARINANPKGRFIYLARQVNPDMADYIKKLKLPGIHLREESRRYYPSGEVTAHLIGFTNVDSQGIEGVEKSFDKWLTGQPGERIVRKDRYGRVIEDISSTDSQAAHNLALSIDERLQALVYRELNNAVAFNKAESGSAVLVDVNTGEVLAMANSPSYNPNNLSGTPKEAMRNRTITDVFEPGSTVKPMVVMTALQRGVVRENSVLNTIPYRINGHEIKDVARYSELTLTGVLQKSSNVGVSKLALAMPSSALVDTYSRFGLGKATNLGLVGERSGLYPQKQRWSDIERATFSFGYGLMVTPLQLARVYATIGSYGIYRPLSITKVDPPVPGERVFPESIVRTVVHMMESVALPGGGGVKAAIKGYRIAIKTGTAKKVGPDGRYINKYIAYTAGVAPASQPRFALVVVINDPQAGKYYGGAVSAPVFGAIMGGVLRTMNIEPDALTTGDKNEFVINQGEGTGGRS
Assay [3] deals with E. coli PBP2 (Escherichia coli (strain K12), UniProt P0AD65). The experiment in a line: E. coli PBP2 Bocillin-FL fluorescence polarization competition binding assay. The conditions noted are these: fluorescence polarization competition binding with Bocillin-FL; read-out: E. coli K12 PBP2 Potency (EC50). The text has this: To determine the ability of boronic acid-based test PBP inhibitors to bind Penicillin Binding Proteins (PBPs), Bocillin-FL (fluorescently-labeled penicillin V; ThermoFisher Scientific) was used in a fluorescence polarization (FP) competition binding assay to assess inhibitor binding to PBP2, PBP3 or PBP4 from Escherichia coli. PBPs were cloned and purified as described previously (King, D. T, et al., ACS Infectious Diseases 2015, 1, 175-184). To establish assay conditions for competition binding, an enzyme titration/saturation binding experiment was initially performed. Bocillin-FL was prepared at 0.2 μM in a buffer comprised of 50 mM Hepes (pH 8.0), 300 mM NaCl and 5% (v/v) glycerol. Saturation binding was performed by mixing 40 μl of PBP solutions ranging in concentrations from 0-12 μM with 40 μl of the 0.2 μM Bocillin-FL solution, in individual wells of a black 384-well microplate. FP was measured immediately upon mixing (Excitation, 490 nm; Emission, 520 nm; g-factor, 0.96), using a Cytation3 (BioTek) microplate reader and measured continuously for up to 120 minutes. […] For all PBPs the FP signal approached saturation with 1.5 μM PBP (final concentration). […] Assays (80 μl final volume) were performed with PBPs at a final concentration of 1.5 μM, Bocillin-FL at 0.1 μM and beta-lactam concentrations that ranged from 0-1000 μM. […] Bocillin-FL was added and the FP immediately measured for 60 minutes (90 minutes for PBP2). The beta-lactam potency was reported as the concentration of beta-lactam required to reduce binding of Bocillin-FL by […] (EC50). […] Binding assays for boronic acid PBP inhibitors were performed in an identical fashion.
E. coli PBP2, sequence (P0AD65 whole entry): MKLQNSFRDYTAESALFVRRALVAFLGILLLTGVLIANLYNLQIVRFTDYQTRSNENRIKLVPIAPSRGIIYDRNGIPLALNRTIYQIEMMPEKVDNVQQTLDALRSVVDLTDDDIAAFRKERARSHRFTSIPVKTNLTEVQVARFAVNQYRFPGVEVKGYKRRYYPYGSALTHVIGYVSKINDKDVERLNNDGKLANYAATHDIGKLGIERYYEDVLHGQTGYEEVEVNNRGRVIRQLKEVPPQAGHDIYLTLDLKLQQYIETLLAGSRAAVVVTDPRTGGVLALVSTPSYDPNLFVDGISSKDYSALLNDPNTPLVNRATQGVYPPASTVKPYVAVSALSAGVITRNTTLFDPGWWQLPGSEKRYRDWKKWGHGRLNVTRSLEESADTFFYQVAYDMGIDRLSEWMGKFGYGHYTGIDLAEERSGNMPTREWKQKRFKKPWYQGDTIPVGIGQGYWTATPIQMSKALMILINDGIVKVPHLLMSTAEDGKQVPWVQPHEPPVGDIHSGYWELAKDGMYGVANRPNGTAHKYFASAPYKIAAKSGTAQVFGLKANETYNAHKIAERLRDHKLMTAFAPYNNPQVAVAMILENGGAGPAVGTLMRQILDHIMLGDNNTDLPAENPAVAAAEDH

Assay [4] addresses E. coli PBP1b (Escherichia coli (strain K12), UniProt P02919). The experiment in a line: Radioligand competition binding assay with 14C-labeled boronic acid probe, PBP1b.
Assay [5] concerns E. coli ATCC 25922. The experiment in a line: Broth microdilution MIC, E. coli ATCC 25922. In kind it is cell-based. The conditions noted are these: Escherichia coli, ATCC25922; E. coli ATCC 25922, broth microdilution; read-out: MIC E. coli 25922. In a few lines: (§1)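 MIC = lowest concentration showing no visible growth after 16-20 h at 37° C. Cation-adjusted MH broth, 2-fold serial dilutions, starting inoculum 5×10^5 CFU/mL, per CLSI methods.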
For orientation: In broth dilution the organism is exposed to a series of concentrations in liquid medium.

In assay [6] the test system is E. coli AG100. Nature of the assay: Broth microdilution MIC, E. coli AG100 (wild-type parent). The format is cell-based. The settings on record: Escherichia coli; wild-type parent E. coli AG100, broth microdilution; read-out: MIC E. coli AG100. In a few lines: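 Broth microdilution in cation-supplemented Mueller-Hinton broth, 2-fold serial compound dilutions, inoculum 5×10^5 CFU/mL from 3-5 h log culture.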

Assay [7] deals with K. pneumoniae SI-117. The experiment in a line: microbe, parasite or virus in culture. The format is cell-based. The conditions noted are these: Klebsiella pneumoniae, SI117, read-out: MIC K. pneumoniae SI-117. A digest of the protocol:
as §1

In assay [8] the test system is E. coli D22. The experiment in a line: microbe, parasite or virus in culture. In kind it is cell-based. The settings on record: Escherichia coli; hyper-permeable E. coli D22, broth microdilution; read-out: MIC E. coli D22. A digest of the protocol: as §1
The test system of assay [9] is K. pneumoniae UMM. The experiment in a line: microbe, parasite or virus in culture. The format is cell-based. The settings on record: Klebsiella pneumoniae; K. pneumoniae UMM producing SHV-5 and KPC-2; read-out: MIC K. pneumoniae UMM. A digest of the protocol:
as §1

In assay [10] the test system is E. coli AG100A. The experiment in a line: microbe, parasite or virus in culture. In kind it is cell-based. The settings on record: Escherichia coli, read-out: MIC E. coli AG100A. In a few lines:
as §1

Assay [11] deals with E. coli 901C. The experiment in a line: microbe, parasite or virus in culture. The settings on record: Escherichia coli; hyper-permeable E. coli 901C, broth microdilution; read-out: MIC E. coli 901C. In kind it is cell-based. In a few lines:
as §1

Assay [12] has as its system K. pneumoniae 848844. The experiment in a line: microbe, parasite or virus in culture. In kind it is cell-based, Klebsiella pneumoniae. The settings on record: Klebsiella pneumoniae; K. pneumoniae 848844 producing SHV-11 and KPC-2; read-out: MIC K. pneumoniae 848844. A digest of the protocol:
as §1

Assay [13] relates to N. gonorrhoeae ATCC 49226. The experiment in a line: Liquid broth MIC, N. gonorrhoeae ATCC 49226. The settings on record: Neisseria gonorrhoeae, ATCC49226; N. gonorrhoeae ATCC 49226, liquid broth; read-out: Minimum Inhibitory Concentration, N. gonorrhoeae ATCC 49226. In kind it is cell-based. A digest of the protocol:
(§2)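 Visual MIC: lowest concentration well showing no bacterial growth after 40-42 h at 36° C in 5% CO2. Inoculum 5×10^5 CFU/mL from colonies swabbed into GC broth, set by OD600; compounds in 2-fold serial dilution.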

The subject of assay [14] is N. gonorrhoeae FA1090. The experiment in a line: Liquid broth MIC, N. gonorrhoeae FA1090. In kind it is cell-based. The settings on record: Neisseria gonorrhoeae; N. gonorrhoeae FA1090, liquid broth; read-out: Minimum Inhibitory Concentration, N. gonorrhoeae FA1090. A digest of the protocol: as §2
The test system of assay [15] is N. gonorrhoeae WHO F. Nature of the assay: Liquid broth MIC, N. gonorrhoeae WHO F. In kind it is cell-based. The conditions noted are these: Neisseria gonorrhoeae; N. gonorrhoeae WHO F, liquid broth; read-out: Minimum Inhibitory Concentration, N. gonorrhoeae WHO F. A digest of the protocol: as §2
For assay [16], the system named is N. gonorrhoeae FA19. Nature of the assay: Liquid broth MIC, N. gonorrhoeae FA19. The format is cell-based. The conditions noted are these: Neisseria gonorrhoeae; N. gonorrhoeae FA19, liquid broth; read-out: Minimum Inhibitory Concentration, N. gonorrhoeae FA19. A digest of the protocol:
as §2

[17] abbreviates: fluorescence polarization competition binding with Bocillin-FL, read-out: E. coli K12 PBP3 Potency.

E. coli PBP1b, sequence (P02919 whole entry): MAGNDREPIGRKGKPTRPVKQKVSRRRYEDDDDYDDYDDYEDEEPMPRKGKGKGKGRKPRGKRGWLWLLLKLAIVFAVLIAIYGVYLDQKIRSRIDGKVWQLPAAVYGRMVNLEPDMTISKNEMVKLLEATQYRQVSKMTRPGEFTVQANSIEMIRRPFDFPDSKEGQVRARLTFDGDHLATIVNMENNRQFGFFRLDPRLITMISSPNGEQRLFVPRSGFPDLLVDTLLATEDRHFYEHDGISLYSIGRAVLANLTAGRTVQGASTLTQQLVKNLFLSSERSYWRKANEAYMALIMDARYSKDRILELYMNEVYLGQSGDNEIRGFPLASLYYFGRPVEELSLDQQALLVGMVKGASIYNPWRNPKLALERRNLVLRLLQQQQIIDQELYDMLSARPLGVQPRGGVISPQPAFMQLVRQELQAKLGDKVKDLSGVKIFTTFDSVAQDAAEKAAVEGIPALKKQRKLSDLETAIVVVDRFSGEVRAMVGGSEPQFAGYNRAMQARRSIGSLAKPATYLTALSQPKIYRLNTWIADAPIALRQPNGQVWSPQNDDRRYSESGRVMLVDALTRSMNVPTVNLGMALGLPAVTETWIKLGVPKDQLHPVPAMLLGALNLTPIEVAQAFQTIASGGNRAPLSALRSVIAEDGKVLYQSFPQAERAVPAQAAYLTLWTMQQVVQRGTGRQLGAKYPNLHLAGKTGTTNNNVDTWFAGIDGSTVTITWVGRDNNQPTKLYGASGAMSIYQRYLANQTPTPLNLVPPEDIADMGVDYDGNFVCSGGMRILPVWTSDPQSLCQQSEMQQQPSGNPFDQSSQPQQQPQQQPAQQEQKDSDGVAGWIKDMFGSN

With `CCN1CCN(C(=O)NC(C(=O)N[C@H]2Cc3cccc(C(=O)O)c3OB2O)c2ccc(F)cn2)C(=O)C1=O` (stereo partly drawn) [Example 114, (3R)-3-(2-(4-ethyl-2,3-dioxopiperazine-1-carboxamido)-2-(5-fluoropyridin-2-yl)acetamido)-2-hydroxy-3,4-dihydro-2H-benzo[e][1,2]oxaborinine-8-carboxylic acid], the MIC in assay [1] lay in the range of 128 to 256 mg/L (≈ 243 to 486 µM). For the same molecule, the EC50 in assay [2] is 30 to 500 µM; in assay [3] it was more than 500 µM; in assay [4], more than 100 µM.
Regarding `CCN1CCN(C(=O)NC(C(=O)N[C@H]2Cc3cccc(C(=O)O)c3OB2O)c2ccc(NS(C)(=O)=O)cn2)C(=O)C1=O` (stereo partly drawn) [Example 154, (3R)-3-(2-(4-ethyl-2,3-dioxopiperazine-1-carboxamido)-2-(5-(methylsulfonamido)pyridin-2-yl)acetamido)-2-hydroxy-3,4-dihydro-2H-benzo[e][1,2]oxaborinine-8-carboxylic acid], the EC50 in [2] and in assay [3] was 30 to 500 µM in each case. Further, the MIC in assay [5] was more than 128 mg/L; in assay [6], more than 128 mg/L; in assay [7], more than 128 mg/L; in [8], 8 to 16 mg/L; in [9] it was more than 128 mg/L; in assay [10], 8 to 16 mg/L. The results for the MIC in assay [11] and in assay [12] were 0.5 to 1 mg/L and more than 128 mg/L, respectively.
As to `CCN1CCN(C(=O)N[C@@H](C(=O)N[C@H]2Cc3cccc(C(=O)O)c3OB2O)c2ccc(O)c(F)c2)C(=O)C1=O` [Example 156, (R)-3-((R)-2-(4-ethyl-2,3-dioxopiperazine-1-carboxamido)-2-(3-fluoro-4-hydroxyphenyl)acetamido)-2-hydroxy-3,4-dihydro-2H-benzo[e][1,2]oxaborinine-8-carboxylic acid], the values for the EC50 in [2] (setting [17]) and in assay [3] were less than 30 µM and more than 500 µM, respectively. Further, the MIC in assay [5] was in the range of 32 to 64 mg/L; in [6] it was 32 to 64 mg/L; in assay [7] it was 32 to 64 mg/L; in assay [8], 2 to 4 mg/L; in [9], 32 to 64 mg/L; in [10], 2 to 4 mg/L. Further, the MIC in assay [11] was less than 0.25 mg/L; in assay [12] it was 32 to 64 mg/L.
In the case of `CCCN1CCN(C(=O)NC(C(=O)N[C@H]2Cc3cccc(C(=O)O)c3OB2O)c2cnc(N)s2)C(=O)C1=O` (stereo partly drawn) [Example 101, (3R)-3-(2-(2-aminothiazol-5-yl)-2-(2,3-dioxo-4-propylpiperazine-1-carboxamido)acetamido)-2-hydroxy-3,4-dihydro-2H-benzo[e][1,2]oxaborinine-8-carboxylic acid], the MIC is 32 to 64 mg/L (≈ 58.8 to 118 µM) in [1]; 1 to 2 mg/L (≈ 1.84 to 3.67 µM) in [13]; less than 0.125 mg/L in assay [14]; less than 0.125 mg/L in [15]; 1 to 2 mg/L (≈ 1.84 to 3.67 µM) in assay [16]. For the same molecule, the results for the EC50 in assay [2] and in [3] were 30 to 500 µM and more than 500 µM, respectively.
As for `CCN1CCN(C(=O)NC(C(=O)N[C@H]2Cc3ccc(F)c(C(=O)O)c3OB2O)c2cccs2)C(=O)C1=O` (stereo partly drawn) [Example 142, (3R)-3-(2-(4-ethyl-2,3-dioxopiperazine-1-carboxamido)-2-(thiophen-2-yl)acetamido)-7-fluoro-2-hydroxy-3,4-dihydro-2H-benzo[e][1,2]oxaborinine-8-carboxylic acid], the EC50 is 30 to 500 µM in [2] and more than 500 µM in assay [3]. For the same molecule, the MIC was 0.25 to 0.5 mg/L (≈ 0.47 to 0.939 µM) in assay [13], less than 0.125 mg/L in assay [14], less than 0.125 mg/L in assay [15] and 1 to 2 mg/L (≈ 1.88 to 3.76 µM) in assay [16].
`C[C@@H](O)[C@@H](NC(=O)N1CCN(CCF)C(=O)C1=O)C(=O)N[C@H]1Cc2ccc(F)c(C(=O)O)c2OB1O` [Example 126, (R)-7-fluoro-3-((2R,3R)-2-(4-(2-fluoroethyl)-2,3-dioxopiperazine-1-carboxamido)-3-hydroxybutanamido)-2-hydroxy-3,4-dihydro-2H-benzo[e][1,2]oxaborinine-8-carboxylic acid]: the EC50 in [2] (setting [17]) and in assay [3] was more than 500 µM throughout. Further, the MIC is 8 to 16 mg/L in assay [5]; 8 to 16 mg/L in assay [6]; 8 to 16 mg/L in assay [7]; 2 to 4 mg/L in [8]; 8 to 16 mg/L in assay [9]; 8 to 16 mg/L in [10]. Besides, the MIC in assay [11] lay in the range of 2 to 4 mg/L; in assay [12], 32 to 64 mg/L.
On to `CCN1CCN(C(=O)NC(C(=O)N[C@H]2Cc3cccc(C(=O)O)c3OB2O)c2ccc(N)nc2)C(=O)C1=O` (stereo partly drawn) [Example 148, (3R)-3-(2-(6-aminopyridin-3-yl)-2-(4-ethyl-2,3-dioxopiperazine-1-carboxamido)acetamido)-2-hydroxy-3,4-dihydro-2H-benzo[e][1,2]oxaborinine-8-carboxylic acid], for which the EC50 is 30 to 500 µM in assay [2] and more than 500 µM in assay [3]. The MIC in assay [5] was 8 to 16 mg/L; in assay [6] it was 32 to 64 mg/L; in assay [7], 32 to 64 mg/L; in assay [8], 2 to 4 mg/L; in assay [9], 32 to 64 mg/L; in assay [10], 2 to 4 mg/L. For the same molecule, the MIC in assay [11] lay within 0.5 to 1 mg/L; in assay [12], 32 to 64 mg/L.
Consider `CCN1CCN(C(=O)NC(C(=O)N[C@H]2Cc3cccc(C(=O)O)c3OB2O)c2ccc(OC)cn2)C(=O)C1=O` (stereo partly drawn) [Example 81, (3R)-3-(2-(4-ethyl-2,3-dioxopiperazine-1-carboxamido)-2-(5-methoxypyridin-2-yl)acetamido)-2-hydroxy-3,4-dihydro-2H-benzo[e][1,2]oxaborinine-8-carboxylic acid], for which the MIC in assay [1] is 128 to 256 mg/L (≈ 237 to 475 µM). The EC50 in assay [2] and in assay [3] was 30 to 500 µM throughout.
